Among the test systems are SNB-75 CNS; HT29 colon; UACC-257 melanoma; MDA-MB-435; NCI-H460 lung; SNB-19 CNS; A549 NSCLC; U251 CNS; NCI-H226 lung; HCC-2998 colon.
What all share (test): NCI tumour cell line growth inhibition, 48 h

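Five concentrations, 48 hours, 96-well plates. At the GI50, growth is halved. TGI is the concentration that stops growth completely.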

With `CCOC(=O)C(=Cc1cccc(Cl)c1)C(=O)OCC`, the GI50 in the experiment with SNB-75 CNS is 2.12 µM; in the experiment with HT29 colon, 2.39 µM; with UACC-257 melanoma, 5.05 µM; with MDA-MB-435 it was 2.07 µM; with NCI-H460 lung it was 3.71 µM; with SNB-19 CNS, 2.37 µM. For the same compound, the GI50 with A549 NSCLC is 11.4 µM; in the experiment on U251 CNS, 4.47 µM; in the experiment with NCI-H226 lung it was 2.49 µM; in the experiment with HCC-2998 colon, 1.79 µM. Further, the TGI with SNB-75 CNS amounted to 7.8 µM; with HT29 colon, 5.57 µM; in the experiment with UACC-257 melanoma it was 18 µM; in the experiment with MDA-MB-435, 5.04 µM; with NCI-H460 lung, 12.6 µM; in the experiment on SNB-19 CNS, 6.66 µM. In addition, the TGI with A549 NSCLC was 24.6 µM; in the experiment with U251 CNS it was 15.9 µM; in the experiment on NCI-H226 lung, 6.18 µM; in the experiment on HCC-2998 colon it was 3.24 µM.
Take `O=C(c1ccc(Cl)cc1)c1cnc(Nc2ccccc2Cl)s1`: the TGI in the experiment on SNB-75 CNS was 39.2 µM; with HT29 colon, over 100 µM; in the experiment on UACC-257 melanoma, 47.2 µM; with MDA-MB-435, over 100 µM; in the experiment on NCI-H460 lung, over 59.8 µM; in the experiment on SNB-19 CNS, 51.3 µM. Further, the TGI in the experiment on A549 NSCLC was 60.3 µM; with U251 CNS, over 80.9 µM; in the experiment on NCI-H226 lung, over 64.3 µM; with HCC-2998 colon it was over 87.8 µM.
`Cc1csc(Nc2nc(-c3cccc(Br)c3)nc(C(Cl)(Cl)Cl)n2)n1`: the GI50 in the experiment on SNB-75 CNS was 1.36 µM; in the experiment on HT29 colon, 0.56 µM; with UACC-257 melanoma it was 3.34 µM; in the experiment on MDA-MB-435, 6.07 µM; with NCI-H460 lung, 1.16 µM; in the experiment with SNB-19 CNS it was 2.87 µM. Besides, the GI50 with A549 NSCLC was 1.61 µM; in the experiment with U251 CNS, 1.83 µM; in the experiment on NCI-H226 lung, over 100 µM; in the experiment on HCC-2998 colon, 1.63 µM. For the same compound, the TGI in the experiment with SNB-75 CNS was over 27.9 µM; with HT29 colon, over 100 µM; in the experiment on UACC-257 melanoma, over 100 µM; in the experiment with MDA-MB-435, over 100 µM; in the experiment on NCI-H460 lung, 3.53 µM; with SNB-19 CNS it was over 100 µM. The TGI in the experiment on A549 NSCLC was 7.28 µM; in the experiment with U251 CNS it was over 100 µM; with NCI-H226 lung, over 100 µM; in the experiment with HCC-2998 colon, 3.57 µM.
As to `Cc1[nH]c2ccccc2c1-c1cc(-c2cc(-c3c(C)[nH]c4ccccc34)on2)no1`, the TGI in the experiment with SNB-75 CNS was 66.8 µM; in the experiment with HT29 colon, over 100 µM; with UACC-257 melanoma, over 100 µM; in the experiment on MDA-MB-435, 80.6 µM; in the experiment on NCI-H460 lung, over 100 µM; with SNB-19 CNS it was over 100 µM. Further, the TGI in the experiment with A549 NSCLC, with U251 CNS, in the experiment with NCI-H226 lung and in the experiment on HCC-2998 colon was over 100 µM in each case.
Turning to `C=CCc1cccc(/C=N/NC(=O)CN2CCN(Cc3ccccc3)CC2)c1O`, the GI50 with SNB-75 CNS was 2.57 µM; in the experiment with HT29 colon, 3.24 µM; in the experiment with UACC-257 melanoma it was 2.46 µM; with MDA-MB-435 it was 2.86 µM; with NCI-H460 lung it was 1.41 µM; in the experiment with SNB-19 CNS it was 5.36 µM. The GI50 in the experiment on A549 NSCLC is 3.34 µM; in the experiment on U251 CNS, 2.13 µM; in the experiment with NCI-H226 lung it was 2.64 µM; in the experiment on HCC-2998 colon, 2.74 µM. In addition, the TGI stood at 12.9 µM in the experiment on SNB-75 CNS; 13.7 µM in the experiment on HT29 colon; 13.8 µM with UACC-257 melanoma; 13.3 µM in the experiment with MDA-MB-435; 11.6 µM with NCI-H460 lung; 20.1 µM in the experiment on SNB-19 CNS. The TGI with A549 NSCLC was 16.4 µM; in the experiment on U251 CNS it was 14.9 µM; with NCI-H226 lung, 14 µM; with HCC-2998 colon it was 17.1 µM.
As to `CCN(CC)c1nc(-c2ccc(Cl)cc2Cl)nc2ccccc12`, the GI50 is 43.9 µM with SNB-75 CNS; 37.6 µM in the experiment with HT29 colon; 17.3 µM with UACC-257 melanoma; 18.7 µM with MDA-MB-435; 23.9 µM with NCI-H460 lung; 40.8 µM with SNB-19 CNS. In addition, the GI50 in the experiment with A549 NSCLC was 17.1 µM; in the experiment on U251 CNS, 18 µM; with NCI-H226 lung, 12.4 µM; in the experiment with HCC-2998 colon it was 16.7 µM. Besides, the TGI with SNB-75 CNS was over 100 µM; with HT29 colon it was over 100 µM; in the experiment on UACC-257 melanoma, 50.7 µM; with MDA-MB-435 it was 48.3 µM; with NCI-H460 lung, over 79.5 µM; in the experiment on SNB-19 CNS, over 100 µM. The TGI was determined as 57.2 µM with A549 NSCLC, 37.2 µM in the experiment on U251 CNS, 31.2 µM with NCI-H226 lung and 31.7 µM with HCC-2998 colon.
As to `O=c1[nH]c(=O)n(C2CC(O)C(CO)O2)cc1CO` (stereo not given), the GI50 in the experiment on SNB-75 CNS is over 100 µM; in the experiment with HT29 colon it was over 100 µM; with UACC-257 melanoma, over 100 µM; in the experiment on MDA-MB-435 it was over 100 µM; in the experiment with NCI-H460 lung, 37.1 µM; in the experiment on SNB-19 CNS, 2.9 µM. Also, the GI50 in the experiment on A549 NSCLC was over 100 µM; with U251 CNS it was 2.95 µM; with NCI-H226 lung it was over 100 µM; in the experiment on HCC-2998 colon it was over 100 µM. Also, the TGI in the experiment with SNB-75 CNS, in the experiment with HT29 colon, with UACC-257 melanoma, with MDA-MB-435, with NCI-H460 lung and with SNB-19 CNS was over 100 µM throughout. In addition, the TGI with A549 NSCLC, in the experiment on U251 CNS, in the experiment with NCI-H226 lung and in the experiment on HCC-2998 colon was over 100 µM in each case.
Consider `COc1cc(-c2nn(-c3cccc(NC(=O)Nc4ccc(Cl)c(Cl)c4)c3)cc2-c2ccncc2)ccc1Cl`, for which the GI50 in the experiment on SNB-75 CNS is 1.05 µM; in the experiment on HT29 colon, 1.24 µM; in the experiment with UACC-257 melanoma it was 1.04 µM; in the experiment on MDA-MB-435, 0.938 µM; with NCI-H460 lung, 1.11 µM; in the experiment on SNB-19 CNS, 1.72 µM. Besides, the GI50 in the experiment with A549 NSCLC is 0.745 µM; with U251 CNS, 0.82 µM; in the experiment on NCI-H226 lung, 1.35 µM; with HCC-2998 colon, 1.56 µM. Moreover, the TGI was 5.17 µM with SNB-75 CNS; 6.46 µM in the experiment with HT29 colon; 3.11 µM with UACC-257 melanoma; 2.39 µM in the experiment with MDA-MB-435; over 50 µM in the experiment with NCI-H460 lung; over 50 µM in the experiment with SNB-19 CNS. Moreover, the TGI with A549 NSCLC is over 50 µM; with U251 CNS, 2.47 µM; in the experiment on NCI-H226 lung, over 50 µM; with HCC-2998 colon, 6.2 µM.
Turning to `CC(C)=CCc1cc(O)cc2c1OC(C=C(C)C)C1=C2C(=O)C2=C(NCCS2(=O)=O)C1=O` (stereo not given), the GI50 in the experiment on SNB-75 CNS was 2.53 µM; in the experiment with HT29 colon, 1.95 µM; in the experiment with UACC-257 melanoma, 2.3 µM; in the experiment on MDA-MB-435, 0.315 µM; in the experiment on NCI-H460 lung it was 1.2 µM; in the experiment with SNB-19 CNS it was 2.25 µM. Further, the GI50 with A549 NSCLC was 3.17 µM; in the experiment with U251 CNS, 2.79 µM; with NCI-H226 lung, 2.06 µM; in the experiment with HCC-2998 colon, 2.63 µM. The TGI in the experiment on SNB-75 CNS was 4.86 µM; in the experiment with HT29 colon, 7.24 µM; in the experiment on UACC-257 melanoma, 4.61 µM; in the experiment with MDA-MB-435, 0.634 µM; in the experiment with NCI-H460 lung, 4.28 µM; with SNB-19 CNS, 4.44 µM. Also, the TGI worked out at 6.83 µM with A549 NSCLC, 5.25 µM in the experiment with U251 CNS, 5.34 µM in the experiment with NCI-H226 lung and 5.19 µM in the experiment on HCC-2998 colon.
Regarding `COc1ccccc1N1CCN(CCCn2c(=O)c3c(OC)nc(C)cc3c(=O)n2-c2ccccc2)CC1`, the GI50 in the experiment with SNB-75 CNS, with HT29 colon, in the experiment with MDA-MB-435, in the experiment on NCI-H460 lung, in the experiment on SNB-19 CNS and in the experiment with A549 NSCLC was over 100 µM throughout. The GI50 with U251 CNS, in the experiment on NCI-H226 lung and in the experiment with HCC-2998 colon was over 100 µM in each case. For the same compound, the TGI in the experiment on SNB-75 CNS, in the experiment on HT29 colon, in the experiment on MDA-MB-435, in the experiment with NCI-H460 lung, in the experiment on SNB-19 CNS and in the experiment on A549 NSCLC was over 100 µM throughout. Also, the TGI in the experiment on U251 CNS, in the experiment with NCI-H226 lung and with HCC-2998 colon was over 100 µM each time.
With `CC1=CC(=O)[C@@H](O)[C@]2(C)[C@H]3[C@@]4(O)OC[C@]35[C@H]([C@@H](C)[C@H]4O)[C@@H](O)C(=O)O[C@@H]5C[C@@H]12`, the TGI in the experiment with SNB-75 CNS was found to be 0.759 µM; with UACC-257 melanoma it was 1.77 µM; in the experiment with MDA-MB-435 it was 1.73 µM; in the experiment with NCI-H460 lung, 4.85 µM; with SNB-19 CNS, 3.69 µM; with A549 NSCLC, 15.5 µM. In addition, the TGI in the experiment on U251 CNS was 0.379 µM; in the experiment on NCI-H226 lung, 0.694 µM; with HCC-2998 colon, 2.51 µM.
With `COc1cccc2c1C(=O)c1c(O)c3c(c(O)c1C2=O)CC(O)(/C(C)=N/NC(=O)CCC(=O)N/N=C(\C)C1(O)Cc2c(O)c4c(c(O)c2C(OC2CC(N)C(O)C(C)O2)C1)C(=O)c1c(OC)cccc1C4=O)CC3OC1CC(N)C(O)C(C)O1` (stereo not given), the GI50 in the experiment on SNB-75 CNS was 0.222 µM; in the experiment with HT29 colon, 0.333 µM; in the experiment with UACC-257 melanoma, 0.781 µM; in the experiment on MDA-MB-435, 0.552 µM; in the experiment with NCI-H460 lung it was 0.0981 µM; in the experiment on SNB-19 CNS it was 0.198 µM. In addition, the GI50 is 0.414 µM in the experiment on A549 NSCLC, 0.324 µM in the experiment on NCI-H226 lung and 0.508 µM in the experiment on HCC-2998 colon. Moreover, the TGI in the experiment with SNB-75 CNS is 2.01 µM; with HT29 colon, over 10.5 µM; in the experiment with UACC-257 melanoma, 3.28 µM; with MDA-MB-435, 3.29 µM; in the experiment on NCI-H460 lung, 0.947 µM; in the experiment on SNB-19 CNS, 1.38 µM. Moreover, the TGI is 1.81 µM in the experiment on A549 NSCLC, 1.39 µM with NCI-H226 lung and 1.46 µM with HCC-2998 colon.

(Values after PubChem BioAssay (NCI).)
